In US12653809B2, “Urea, amide, and substituted heteroaryl compounds for CBL-B inhibition” (Nurix Therapeutics, Inc., priority 2019, dated 2026):
Where two headings read alike, the source gives them in different places.

Molecular target: T1, Cbl-b (truncated variant, UniProt number Q13191) (Homo sapiens, UniProt Q13191)
T1 construct: made in house
Experiment: Cbl-b activity assay (TR-FRET, interaction of Cbl-b with UbcH5B-Ub)
Type: biochemical
Source text: As described in Biological Example 1A, a Cbl-b activity assay (Cbl-b inhibition assay) used to measure the IC50 values for Cbl-b inhibition uses a mixture comprising candidate compound, Cbl-b (truncated, with an Avitag, and biotinylated), a fluorescently-labeled E2 enzyme UbcH5B labelled with ubiquitin conjugated to BODIPY-fluorescein (UbcH5B-Ub), streptavidin-terbium, and assay buffer. In one embodiment, the Cbl-b activity assay (Cbl-b inhibition assay) used to measure IC50 for inhibition of Cbl-b uses the conditions described in Biological Example 1A with 12 nM Cbl-b. […] In another embodiment, the Cbl-b activity assay (Cbl-b inhibition assay) used to measure IC50 for inhibition of Cbl-b uses the conditions described in Biological Example 1B, with candidate compound, 0.125 nM Cbl-b (truncated, with an avitag, and biotinylated), fluorescently labelled inhibitor probe, and assay buffer. Displacement of the inhibitor probe indicates Cbl-b activity.
Candidate compounds isolated from screening assays were evaluated for their ability to bind and inhibit Cbl-b, an E3 ubiquitin-protein ligase.
The ability of candidate compounds to inhibit Cbl-b activity was measured by monitoring the interaction of Cbl-b with UbcH5B-Ub in the presence of the candidate compound. A truncated variant of Cbl-b (UniProt number Q13191; SEQ ID NO:1) containing an Avitag at its N-terminus was co-expressed with BirA biotin ligase and purified using a standard protocol (see Dou et al., Nature Structural and Molecular Biology 8: 982-987, 2013; Avidity LLC).
Fluorescently labeled UbcH5B-Ub was prepared by conjugating ubiquitin (Ub), labeled at its N-terminus with Bodipy-Fluorescein, to UbcH5B, an E2 enzyme, harboring a cysteine to lysine mutation at position 85. This mutation is similar to a mutation that was previously reported (see Dou et al., Nature Structural and Molecular Biology 8: 982-987, 2013). Cbl-b activity assays were performed in a 384-well plate at room temperature in a 10 μL reaction volume by pre-incubating 12 nM Cbl-b (final concentration) in an assay buffer containing 50 mM HEPES pH 7.0, 100 mM NaCl, 0.01% Triton X-100, 0.01% BSA, and 1 mM DTT in the presence of a candidate compound in 1% DMSO (final concentration, High Conditions) for one hour. After incubation in the presence of the candidate compound, the plate was incubated for an additional 1.5 hours in the presence of 60 nM Src kinase with 1 mM ATP and 5 mM MgCl2 (final concentrations). Alternatively, compounds were tested as described above with assay buffer containing 50 mM NaCl instead of 100 mM NaCl and 30 nM Src kinase instead of 60 nM Src kinase (Low Conditions). Src kinase was prepared as previously described (see Kobashigawa et al., Proc Natl Acad Sci USA, 108: 20579-20584, 2011). […] The plate was incubated for one hour. Following the one hour incubation, the plates were read for TR-FRET signal at 520/620 nm using Envision plate reader (Perkin Elmer). The presence of a FRET signal that indicated Cbl-b was not inhibited by the compound candidate. The absence of a FRET signal indicated Cbl-b was inhibited by the compound candidate and was therefore a Cbl-b inhibitor.
The resulting data for the Cbl-b activity assays were analyzed using standard methods to report the IC50 values of the tested compounds (Tables 3-4). The resulting data for the Cbl-b binding assay was solvent corrected and double-referenced prior to analysis. All data were globally fit to a steady-state affinity and kinetic binding model where applicable. Compounds were ranked into bins A through D as follows for IC50: A indicates <0.1 μM, B indicates 0.1 μM≤IC50<1 μM, C indicates 1 μM≤IC50<5 μM, and D indicates 5 μM≤IC50.

[1] = Biological Example 1A, low or high conditions not stated, read-out: IC50 values in the Cbl-b inhibition assay of Biological Example 1A
[2] = high conditions: 100 mM NaCl, 60 nM Src kinase, 12 nM Cbl-b, read-out: Cbl-b activity IC50
[3] = low conditions: 50 mM NaCl, 30 nM Src kinase, 12 nM Cbl-b, read-out: Cbl-b activity IC50

T1 sequence (Q13191 36-427): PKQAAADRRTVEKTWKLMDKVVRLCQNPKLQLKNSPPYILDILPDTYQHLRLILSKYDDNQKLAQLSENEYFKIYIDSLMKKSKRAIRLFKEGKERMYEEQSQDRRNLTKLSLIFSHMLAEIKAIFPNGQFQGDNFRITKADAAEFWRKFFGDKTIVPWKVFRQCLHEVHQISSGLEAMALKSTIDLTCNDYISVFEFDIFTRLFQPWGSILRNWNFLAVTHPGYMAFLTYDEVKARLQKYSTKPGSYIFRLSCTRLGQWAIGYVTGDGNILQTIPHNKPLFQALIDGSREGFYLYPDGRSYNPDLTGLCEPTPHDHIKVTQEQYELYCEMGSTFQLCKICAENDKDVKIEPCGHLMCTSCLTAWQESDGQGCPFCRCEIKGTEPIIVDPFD

Compound | IC50 [1] | IC50 [2] | IC50 [3]
C[C@H](Cc1nncn1C)c1cccc(NC(=O)N2C[C@H](CO)[C@@H](C)C2)c1 (relative stereo) [Example 17, (3R*,4R*)-3-(hydroxymethyl)-4-methyl-N-(3-((R)-1-(4-methyl-4H-1,2,4-triazol-3-yl)propan-2-yl)phenyl)pyrrolidine-1-carboxamide] | 1000 to 5000 nM | 1000 to 5000 nM | –
CC(Sc1nncn1C)c1cccc(C(=O)Nc2cccc(C(F)(F)F)n2)c1 (centres unmarked) [Example 1, 3-(1-((4-methyl-4H-1,2,4-triazol-3-yl)thio)ethyl)-N-(6-(trifluoromethyl)pyridin-2-yl)benzamide] | ≥ 5000 nM | – | ≥ 5000 nM
C[C@H](Sc1nncn1C)c1cccc(NC(=O)Nc2ccccn2)c1 [Example 2, (S)-1-(3-(1-((4-methyl-4H-1,2,4-triazol-3-yl)thio)ethyl)phenyl)-3-(pyridin-2-yl)urea] | 100 to 1000 nM | – | 100 to 1000 nM
COc1cccc(NC(=O)Nc2cccc([C@H](C)Sc3nncn3C)c2)n1 [Example 4, (S)-1-(6-methoxypyridin-2-yl)-3-(3-(1-((4-methyl-4H-1,2,4-triazol-3-yl)thio)ethyl)phenyl)urea] | – | ≥ 5000 nM | –
C[C@H](Sc1nncn1C)c1cccc(NC(=O)NCc2ccccc2)c1 [Example 5, (S)-1-benzyl-3-(3-(1-((4-methyl-4H-1,2,4-triazol-3-yl)thio)ethyl)phenyl)urea] | – | – | ≥ 5000 nM
C[C@H](Sc1nncn1C)c1cccc(NC(=O)Nc2ccccc2)c1 [Example 6, (S)-1-(3-(1-((4-methyl-4H-1,2,4-triazol-3-yl)thio)ethyl)phenyl)-3-phenylurea] | – | ≥ 5000 nM | –
C[C@H](Sc1nncn1C)c1cccc(NC(=O)N2CCc3ccccc32)c1 [Example 7, (S)—N-(3-(1-((4-methyl-4H-1,2,4-triazol-3-yl)thio)ethyl)phenyl)indoline-1-carboxamide] | – | ≥ 5000 nM | –
C[C@H](Sc1nncn1C)c1cccc(NC(=O)N2CCCc3ccccc32)c1 [Example 8, (S)—N-(3-(1-((4-methyl-4H-1,2,4-triazol-3-yl)thio)ethyl)phenyl)-3,4-dihydroquinoline-1(2H)-carboxamide] | – | ≥ 5000 nM | –
COC(=O)C1(C(F)(F)F)CCN(C(=O)Nc2cccc([C@H](C)Cc3nncn3C)c2)C1 (stereo partly drawn) [Example 11, Methyl 1-((3-((R)-1-(4-methyl-4H-1,2,4-triazol-3-yl)propan-2-yl)phenyl)carbamoyl)-3-(trifluoromethyl)pyrrolidine-3-carboxylate] | 1000 to 5000 nM | 1000 to 5000 nM | –
CNC(=O)C1(C)CCN(C(=O)Nc2cccc([C@H](C)Cc3nncn3C)c2)C1 (stereo partly drawn) [Example 12, N^3,3-dimethyl-N′-(3-((R)-1-(4-methyl-4H-1,2,4-triazol-3-yl)propan-2-yl)phenyl)pyrrolidine-1,3-dicarboxamide] | ≥ 5000 nM | ≥ 5000 nM | –
C[C@H](Cc1nncn1C)c1cccc(NC(=O)N2CCC(C(=O)O)(C(F)(F)F)C2)c1 (stereo partly drawn) [Example 15, 1-((3-((R)-1-(4-methyl-4H-1,2,4-triazol-3-yl)propan-2-yl)phenyl)carbamoyl)-3-(trifluoromethyl)pyrrolidine-3-carboxylic acid] | 1000 to 5000 nM | 1000 to 5000 nM | –
C[C@H](Cc1nncn1C)c1cccc(C(=O)Nc2cccc(C(F)(F)F)n2)c1 [Example 18, (R)-3-(1-(4-methyl-4H-1,2,4-triazol-3-yl)propan-2-yl)-N-(6-(trifluoromethyl)pyridin-2-yl)benzamide] | ≥ 5000 nM | ≥ 5000 nM | –

The next lines start with the values.

IC50 [1] | IC50 [2] | IC50 [3] | Compound
100 to 1000 nM | 100 to 1000 nM | – | C[C@H](Sc1nncn1C)c1cccc(NC(=O)Nc2cccc(C(F)(F)F)n2)c1 [Example 3, (S)-1-(3-(1-((4-methyl-4H-1,2,4-triazol-3-yl)thio)ethyl)phenyl)-3-(6-(trifluoromethyl)pyridin-2-yl)urea]
100 to 1000 nM | 100 to 1000 nM | – | C[C@H](Cc1nncn1C)c1cccc(NC(=O)N2CCCc3cccnc32)c1 [Example 9, (R)—N-(3-(1-(4-methyl-4H-1,2,4-triazol-3-yl)propan-2-yl)phenyl)-3,4-dihydro-1,8-naphthyridine-1(2H)-carboxamide]
< 100 nM | < 100 nM | – | C[C@H](Cc1nncn1C)c1cccc(NC(=O)N2CCOc3cccnc32)c1 [Example 10, (R)—N-(3-(1-(4-methyl-4H-1,2,4-triazol-3-yl)propan-2-yl)phenyl)-2,3-dihydro-4H-pyrido[3,2-b][1,4]oxazine-4-carboxamide]
100 to 1000 nM | 100 to 1000 nM | – | Cc1cccc2c1CN(C(=O)Nc1cccc([C@H](C)Cc3nncn3C)c1)C2 [Example 13, (R)-4-methyl-N-(3-(1-(4-methyl-4H-1,2,4-triazol-3-yl)propan-2-yl)phenyl)isoindoline-2-carboxamide]
100 to 1000 nM | 100 to 1000 nM | – | C[C@H](Cc1nncn1C)c1ccnc(C(=O)Nc2cccc(C(F)(F)F)n2)c1 [Example 14, 4-[(2R)-1-(4-methyl-4H-1,2,4-triazol-3-yl)propan-2-yl]-N-[6-(trifluoromethyl)pyridin-2-yl]pyridine-2-carboxamide]
100 to 1000 nM | 100 to 1000 nM | – | C[C@H](Cc1nncn1C)c1cccc(NC(=O)N2CCc3cccnc32)c1 [Example 16, (R)—N-(3-(1-(4-methyl-4H-1,2,4-triazol-3-yl)propan-2-yl)phenyl)-2,3-dihydro-1H-pyrrolo[2,3-b]pyridine-1-carboxamide]
< 100 nM | < 100 nM | – | C[C@H](Cc1nncn1C)c1cccc(NC(=O)N2CC(C)(C)Oc3cccnc32)c1 [Example 19, (R)-2,2-dimethyl-N-(3-(1-(4-methyl-4H-1,2,4-triazol-3-yl)propan-2-yl)phenyl)-2,3-dihydro-4H-pyrido[3,2-b][1,4]oxazine-4-carboxamide]
– | 100 to 1000 nM | – | CNC(=O)C1(C(F)(F)F)CCN(C(=O)Nc2cccc([C@H](C)Cc3nncn3C)c2)C1 (stereo partly drawn) [Example 20, N^3-methyl-N^1-(3-((R)-1-(4-methyl-4H-1,2,4-triazol-3-yl)propan-2-yl)phenyl)-3-(trifluoromethyl)pyrrolidine-1,3-dicarboxamide]
– | 100 to 1000 nM | – | C[C@H](Cc1nncn1C)c1cccc(NC(=O)N2CCOc3cc(Br)cnc32)c1 [Example 21, (R)-7-bromo-N-(3-(1-(4-methyl-4H-1,2,4-triazol-3-yl)propan-2-yl)phenyl)-2,3-dihydro-4H-pyrido[3,2-b][1,4]oxazine-4-carboxamide]
– | 100 to 1000 nM | – | C[C@H](Cc1nncn1C)c1cccc(NC(=O)N2CC(C)(C)c3cccnc32)c1 [Example 22, (R)-3,3-dimethyl-N-(3-(1-(4-methyl-4H-1,2,4-triazol-3-yl)propan-2-yl)phenyl)-2,3-dihydro-1H-pyrrolo[2,3-b]pyridine-1-carboxamide]
– | 100 to 1000 nM | – | Cn1cnnc1CC1(c2cccc(NC(=O)N3CCOc4cccnc43)c2)COC1 [Example 23, N-(3-(3-((4-methyl-4H-1,2,4-triazol-3-yl)methyl)oxetan-3-yl)phenyl)-2,3-dihydro-4H-pyrido[3,2-b][1,4]oxazine-4-carboxamide]
– | 100 to 1000 nM | – | Cn1cnnc1C(F)(F)[C@](C)(F)c1cccc(NC(=O)N2CCOc3cccnc32)c1 [Example 24, (R)—N-(3-(1,1,2-trifluoro-1-(4-methyl-4H-1,2,4-triazol-3-yl)propan-2-yl)phenyl)-2,3-dihydro-4H-pyrido[3,2-b][1,4]oxazine-4-carboxamide]
